The results in this text go back to doi:10.1101/2021.10.07.463234v2 (biorxiv, 2021).

Where a name gives a salt, the structure may show the parent alone.

For one assay, the target named is SARS-CoV-2 Mac1 (Severe acute respiratory syndrome coronavirus 2, UniProt P0DTD1). Kind of assay: biochemical. Conditions: 100 µM; inhibitor.
What is called %inhibition is the share of the control response that was lost under treatment. Low readings indicate a response near the control, high ones a response far below the control. As for `CN1[C@@H]2CC[C@H]1C[C@@H](OC(=O)c1c[nH]c3ccccc13)C2` [Tropisetron HCl], the “%inhibition” value is 30.45%. Take `CN1[C@@H]2CC[C@H]1C[C@@H](OC(=O)c1c[nH]c3ccccc13)C2` [Tropisetron]: the “%inhibition” value amounted to 6.575%. Consider `CCCC(CCC)C(=O)O` [Valproic acid sodium salt (Sodium valproate)], for which the “%inhibition” value was 16.22%. Turning to `CCCC(CCC)C(=O)O` [Valproic acid], the “%inhibition” value is 0%. With `COc1ccc(C(CN(C)C)C2(O)CCCCC2)cc1` (stereo not drawn) [Venlafaxine HCl], the “%inhibition” value is 0%. The same measure, in the same setting: as for `Nc1ncnc2c1ncn2[C@@H]1O[C@H](CO)[C@@H](O)[C@@H]1O` [Vidarabine], the figure is 17.83%. The same measure, in the same setting: the same measure for `O=C1O[C@H]([C@@H](O)CO)C(O)=C1O` [Vitamin C]: 15.62%.

Still in this assay, the particulars now being: read-out: %inhibition.
For orientation: inhibition means the percentage by which the read-out fell short of the control. Turning to `CN(C)CCN(Cc1ccccc1)c1ccccn1` [Tripelennamine HCl], the inhibition at 100 µM was 0%.

Consider `Cc1ccc(/C(=C\CN2CCCC2)c2ccccn2)cc1` [Triprolidine Hydrochloride], for which the inhibition at 100 µM was 2.14%.

With `Cc1c(C)c2c(c(C)c1O)CCC(C)(COc1ccc(CC3SC(=O)NC3=O)cc1)O2` (stereo not drawn) [Troglitazone (CS-045)], the inhibition at 100 µM was 5.13%. For the compound `NC(CO)(CO)CO` [Trometamol], the inhibition at 100 µM is 3.46%. Take `O=C(O[C@H]1C[C@H]2CC[C@@H](C1)[N+]21CCCC1)C(O)(c1ccccc1)c1ccccc1` [Trospium chloride]: the inhibition at 100 µM was found to be 14.5%. Same read-out and setting: as for `C[C@@H]1O[C@@H](OC[C@H]2O[C@@H](Oc3c(-c4ccc(OCCO)c(OCCO)c4)oc4cc(OCCO)cc(O)c4c3=O)[C@H](O)[C@@H](O)[C@@H]2O)[C@H](O)[C@H](O)[C@H]1O` [Troxerutin], the figure is 0%; as for `COc1cc(C(=O)NC2CCCNC2)cc(OC)c1OC` (stereo not drawn) [Troxipide], 19.2%. With `CC[C@H]1OC(=O)C[C@@H](O)[C@H](C)[C@@H](O[C@@H]2O[C@H](C)[C@@H](O[C@H]3C[C@@](C)(O)[C@@H](O)[C@H](C)O3)[C@H](N(C)C)[C@H]2O)[C@@H](CC=O)C[C@@H](C)C(=O)/C=C/C(C)=C/[C@@H]1CO[C@@H]1O[C@H](C)[C@@H](O)[C@@H](OC)[C@H]1OC` [Tylosin tartrate], the inhibition at 100 µM turned out to be 0%. Consider `CCCCOC(=O)c1ccccc1Nc1cccc(C(F)(F)F)c1` [Ufenamate], for which the inhibition at 100 µM came out at 7.76%. For the compound `CC(=O)[C@@]1(O)CC[C@H]2[C@@H]3CCC4=CC(=O)CCC4=C3[C@@H](c3ccc(N(C)C)cc3)C[C@@]21C` [Ulipristal], the inhibition at 100 µM is 0.321%.

With `CC(C)Nc1cc(-c2c[nH]c(C(=O)N[C@H](CO)c3cccc(Cl)c3)c2)c(Cl)cn1` [Ulixertinib (BVD-523, VRT752271)], the inhibition at 100 µM worked out at 24.8%. With `OC(c1ccccc1)(c1ccccc1)C12CC[N+](CCOCc3ccccc3)(CC1)CC2` [Umeclidinium bromide], the inhibition at 100 µM amounted to 0%. Still for that read-out and setting: as for `Cn1ncc(Cl)c1-c1cc(C(=O)N[C@H](CN)Cc2ccc(F)c(F)c2)oc1Cl` [Uprosertib (GSK2141795)], the figure is 0%; as for `O=c1cc[nH]c(=O)[nH]1` [Uracil], 0%; as for `COc1ccccc1N1CCN(CCCNc2cc(=O)n(C)c(=O)n2C)CC1` [Urapidil HCl], 2.64%. With `CCOC(N)=O` [Urethane], the inhibition at 100 µM was found to be 0%. On the same count and under the same terms, the same measure for `O=c1ccn([C@@H]2O[C@H](CO)[C@@H](O)[C@H]2O)c(=O)[nH]1` [Uridine]: 0%. On the same count and under the same terms, the same measure for `C[C@H](CCC(=O)O)[C@H]1CC[C@H]2[C@@H]3[C@@H](O)C[C@@H]4C[C@H](O)CC[C@]4(C)[C@H]3CC[C@]12C` [Ursodiol]: 0%; for `Cc1ccc(NC(=O)C2(c3ccc4c(c3)OC(F)(F)O4)CC2)nc1-c1cccc(C(=O)O)c1` [VX-809 (Lumacaftor)]: 0%; for `CC(C)[C@H](N)C(=O)OCCOCn1cnc2c(=O)nc(N)[nH]c21` [Valaciclovir HCl]: 39.4%. On the same count and under the same terms, as for `COc1cc2c(cc1OC)[C@H]1C[C@@H](OC(=O)[C@@H](N)C(C)C)[C@H](CC(C)C)CN1CC2` [Valbenazine tosylate], the figure is 13.2%; as for `Cc1onc(-c2ccccc2)c1-c1ccc(S(N)(=O)=O)cc1` [Valdecoxib], 9.12%; as for `CC(C)[C@H](N)C(=O)OCC(CO)OCn1cnc2c(=O)nc(N)[nH]c21` (stereo partly drawn) [Valganciclovir HCl], 0%. For `C=C[C@]1(C)C[C@@H](OC(=O)CSC(C)(C)CNC(=O)[C@H](N)C(C)C)[C@]2(C)[C@H](C)CC[C@]3(CCC(=O)[C@H]32)[C@@H](C)[C@@H]1O` [Valnemulin HCl], the inhibition at 100 µM was determined as 23.1%. Take `CCCC(CCC)C(N)=O` [Valpromide]: the inhibition at 100 µM was determined as 13.2%. On to `CCCCC(=O)N(Cc1ccc(-c2ccccc2-c2nnn[nH]2)cc1)[C@H](C(=O)O)C(C)C` [Valsartan], for which the inhibition at 100 µM amounted to 31.1%.

Regarding `CN[C@H](CC(C)C)C(=O)N[C@H]1C(=O)N[C@@H](CC(N)=O)C(=O)N[C@H]2C(=O)N[C@H]3C(=O)N[C@H](C(=O)N[C@H](C(=O)O)c4cc(O)cc(O)c4-c4cc3ccc4O)[C@H](O)c3ccc(c(Cl)c3)Oc3cc2cc(c3O[C@@H]2O[C@H](CO)[C@@H](O)[C@H](O)[C@H]2O[C@H]2C[C@](C)(N)[C@H](O)[C@H](C)O2)Oc2ccc(cc2Cl)[C@H]1O` [Vancomycin HCl], the inhibition at 100 µM was determined as 0%. On to `COc1cc2/c(=N/c3ccc(Br)cc3F)nc[nH]c2cc1OCC1CCN(C)CC1` [Vandetanib (ZD6474)], for which the inhibition at 100 µM is 35.2%.

Consider `CCCc1nc(C)c2c(O)nc(-c3cc(S(=O)(=O)N4CCN(CC)CC4)ccc3OCC)nn12` [Vardenafil HCl Trihydrate], for which the inhibition at 100 µM is 3.9%. On the same count and under the same terms, the same measure for `c1cnc2cc3c(cc2n1)[C@@H]1CNC[C@H]3C1` [Varenicline Tartrate]: 0%; for `C[C@@H]1COC(Nc2ccc3ncnc(Nc4ccc(OCc5nccs5)c(Cl)c4)c3c2)=N1` [Varlitinib]: 0%; for `Clc1ccc(Nc2nnc(Cc3ccncc3)c3ccccc23)cc1` [Vatalanib (PTK787) 2HCl]: 0%. As for `CC(=O)O[C@H]1C[C@@H]2CC[C@@H]3[C@H](CC[C@@]4(C)[C@H]3C[C@H]([N+]3(C)CCCCC3)[C@@H]4OC(C)=O)[C@@]2(C)C[C@@H]1N1CCCCC1` [Vecuronium Bromide], the inhibition at 100 µM was determined as 0%.

`C[C@]1(c2nc3c(C(N)=O)cccc3[nH]2)CCCN1` [Veliparib (ABT-888)]: the inhibition at 100 µM was found to be 54.3%. Still for that read-out and setting: as for `COC[C@H]1C[C@@H](c2nc(-c3ccc4c(c3)COc3cc5c(ccc6nc([C@@H]7CC[C@H](C)N7C(=O)[C@@H](NC(=O)OC)C(C)C)[nH]c65)cc3-4)c[nH]2)N(C(=O)[C@H](NC(=O)OC)c2ccccc2)C1` [Velpatasvir], the figure is 3.54%. Take `CCCS(=O)(=O)Nc1ccc(F)c(C(=O)c2c[nH]c3ncc(-c4ccc(Cl)cc4)cc23)c1F` [Vemurafenib (PLX4032, RG7204)]: the inhibition at 100 µM came to 2.37%. For the compound `Nc1ncnc2c1ncn2[C@@H]1O[C@H](CO)[C@@H](O)[C@@H]1O` [Vidarabine monohydrate], the inhibition at 100 µM came to 9.49%.

In the case of `COc1cccc(-c2ccc(NC(=O)C3=C(C(=O)O)CCC3)c(F)c2)c1` [Vidofludimus], the inhibition at 100 µM is 19.8%. Consider `N#Cc1ccc2[nH]cc(CCCCN3CCN(c4ccc5oc(C(N)=O)cc5c4)CC3)c2c1` [Vilazodone HCl], for which the inhibition at 100 µM was 9.5%. Regarding `N#C[C@@H]1CCCN1C(=O)CNC12CC3CC(CC(O)(C3)C1)C2` [Vildagliptin (LAF-237)], the inhibition at 100 µM was found to be 11.7%. Turning to `CC[C@]1(O)C[C@@H]2CN(CCc3c([nH]c4ccccc34)[C@@](C(=O)OC)(c3cc4c(cc3OC)N(C)[C@H]3[C@@](O)(C(=O)OC)[C@H](OC(C)=O)[C@]5(CC)C=CCN6CC[C@]43[C@@H]65)C2)C1` [Vinblastine sulfate], the inhibition at 100 µM is 1.94%. As to `CC[C@]12CCCN3CCc4c(n(c5ccccc45)[C@@](O)(C(=O)OC)C1)[C@@H]32` [Vincamine], the inhibition at 100 µM came out at 13.7%. For `CC[C@]1(O)C[C@H]2CN(CCc3c([nH]c4ccccc34)[C@@](C(=O)OC)(c3cc4c(cc3OC)N(C=O)[C@H]3[C@@](O)(C(=O)OC)[C@H](OC(C)=O)[C@]5(CC)C=CCN6CC[C@]43[C@@H]65)C2)C1` [Vincristine sulfate], the inhibition at 100 µM amounted to 42.2%.

As to `CCOC(=O)C1=C[C@]2(CC)CCCN3CCc4c(n1c1ccccc41)[C@@H]32` [Vinpocetine], the inhibition at 100 µM is 1.15%. On to `CS(=O)(=O)c1ccc(C(=O)Nc2ccc(Cl)c(-c3ccccn3)c2)c(Cl)c1` [Vismodegib (GDC-0449)], for which the inhibition at 100 µM is 0%. For `CC(=O)OC/C=C(C)/C=C/C=C(C)/C=C/C1=C(C)CCCC1(C)C` [Vitamin A Acetate], the inhibition at 100 µM stood at 4.44%.

For the compound `CC1=C(/C=C/C(C)=C/C=C/C(C)=C/CO)C(C)(C)CCC1` [Vitamin A], the inhibition at 100 µM was found to be 2.61%. With `C=C1CC[C@H](O)C/C1=C/C=C1\CCC[C@]2(C)[C@@H]([C@H](C)/C=C/[C@H](C)C(C)C)CC[C@@H]12` [Vitamin D2], the inhibition at 100 µM came to 0%. In the case of `CC(=O)Oc1c(C)c(C)c2c(c1C)CCC(C)(CCC[C@H](C)CCC[C@H](C)CCCC(C)C)O2` (stereo partly drawn) [Vitamin E Acetate], the inhibition at 100 µM was 0%. For the compound `CC1=C(C/C=C(\C)CCC[C@H](C)CCC[C@H](C)CCCC(C)C)C(=O)c2ccccc2C1=O` [Vitamin K1], the inhibition at 100 µM came to 19.5%. On to `OCC(CO)N[C@H]1C[C@](O)(CO)[C@@H](O)[C@H](O)[C@H]1O` [Voglibose], for which the inhibition at 100 µM is 7.63%. `CC[C@@H]1C(=O)N(C)c2cnc(Nc3ccc(C(=O)N[C@H]4CC[C@H](N5CCN(CC6CC6)CC5)CC4)cc3OC)nc2N1C(C)C` [Volasertib (BI 6727)]: the inhibition at 100 µM amounted to 0%. As for `CNCc1cc(-c2ccccc2F)n(S(=O)(=O)c2cccnc2)c1` [Vonoprazan Fumarate (TAK-438)], the inhibition at 100 µM came to 0%.
